Where “and” joins values, the source holds several entries; their conditions need not be identical. Equal values may be shown once. Read-outs that look alike come from different tables or passages of the source.
Assays:
[1] = Absorption and fluorescence emission spectra in DMF; type: physicochemical; settings: in DMF
Protocol: (§1) An absorption spectrum of 2.475 mL of solvent (water, DMF, or PBS) was taken (i.e., absorption spectrum of baseline); then, 25 μL of stock solution was added to reach the final concentration of 1 μM in the cuvette, and the absorption and emission spectra were taken. Baseline of the solvent was subtracted from the obtained absorption spectrum to get the final absorption spectrum of the sample.

[2] = Log P, partition between n-octanol and PBS; type: physicochemical; settings: partition coefficient between 1-octanol and PBS
Procedure, shortened: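 Sample from 100 μM stock added to equal volumes of n-octanol and PBS, vortexed 5 min at rt, centrifuged. Each layer diluted into DMF and emission spectra recorded; log P taken as log of octanol/PBS integrated fluorescence ratio, mean of triplicates.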

[3] = test system: HeLa (human cervical carcinoma); assay: Photodynamic activity (phototoxicity, neutral red uptake) on HeLa; type: cell-based; settings: HeLa; unsymmetrical anionic A1Zn, A2Zn vs A3Zn, A4Zn
[4] = test system: MCF-7 (human breast adenocarcinoma); design: method as in number not printed in Table 2; settings: 12 h incubation, Xe-lamp 15 min, λ > 570 nm, 11.2 J/cm^2; mean ± SD; determined previously under the same conditions at the same workplace and published; ref number not given; cited from earlier work
[5] = target: bovine serum albumin (BSA) (Bos taurus, UniProt P02769); assay: Interaction with bovine serum albumin (absorption and emission spectra in PBS); type: binding; settings: 1 μM Pc in PBS, BSA 17.5, 35 and 100 μM
[6] = Fluorescence lifetime in DMF; type: physicochemical
Text: 1 Photophysical Data of Investigated Derivatives in DMF ^a | column: τF1/ns; τF2/ns

[7] = Fluorescence quantum yield, comparative method; type: physicochemical; settings: in DMF; ZnPc as reference
Procedure, shortened: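 ΦF determined by the comparative method against ZnPc (ΦF 0.32 in THF), using integrated emission area, absorbance at the excitation wavelength and solvent refractive index. Q-band absorbance kept below 0.05; estimated error ± 15%.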

[8] = Quantum yield of singlet oxygen production, comparative method with DPBF scavenger; type: physicochemical; settings: in DMF, ZnPc as reference
Procedure, shortened: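 Dye added from 100 μM DMF stock (or DMF/water, water); irradiated under stirring with xenon lamp through water filter and OG530 cut-off (>523 nm). DPBF decay followed at 415 nm; ΦΔ from ln(A0/At) slopes versus reference, normalised to absorbed light summed over 523–850 nm; triplicate means, ±10% error.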

[9] = test system: HeLa (human cervical carcinoma); settings: ref number not given, cited from earlier work
[10] = test system: SK-MEL-28 (human skin melanoma); assay: Photodynamic activity (phototoxicity, neutral red uptake) on SK-MEL-28; type: cell-based; settings: 12 h incubation, Xe-lamp 15 min, λ > 570 nm, 11.2 J/cm^2; mean ± SD; t.w. = this work
[11] = Aggregation / monomerization in aqueous media (spectra in water and PBS); type: physicochemical; settings: 1 μM
Protocol: as §1

[12] = cited from earlier work; for ΦF, fluorescence quantum yield of nonionized analogue: determined for nonionized analogues containing free carboxylic acid, ref number not given (footnote b)
[13] = cited from earlier work; for ΦΔ, quantum yield of singlet oxygen production of nonionized analogue: determined for nonionized analogues containing free carboxylic acid, ref number not given (footnote b)
[14] = test system: SK-MEL-28 (human skin melanoma); design: method as in number not printed in Table 2; settings: 12 h incubation, Xe-lamp 15 min, λ > 570 nm, 11.2 J/cm^2; mean ± SD; determined previously under the same conditions at the same workplace and published; ref number not given; cited from earlier work
[15] = 12 h incubation, Xe-lamp 15 min, λ > 570 nm, 11.2 J/cm^2, mean ± SD, determined previously under the same conditions at the same workplace and published, read-out: EC50 (nM) HeLa

bovine serum albumin (BSA), sequence (P02769 25-607): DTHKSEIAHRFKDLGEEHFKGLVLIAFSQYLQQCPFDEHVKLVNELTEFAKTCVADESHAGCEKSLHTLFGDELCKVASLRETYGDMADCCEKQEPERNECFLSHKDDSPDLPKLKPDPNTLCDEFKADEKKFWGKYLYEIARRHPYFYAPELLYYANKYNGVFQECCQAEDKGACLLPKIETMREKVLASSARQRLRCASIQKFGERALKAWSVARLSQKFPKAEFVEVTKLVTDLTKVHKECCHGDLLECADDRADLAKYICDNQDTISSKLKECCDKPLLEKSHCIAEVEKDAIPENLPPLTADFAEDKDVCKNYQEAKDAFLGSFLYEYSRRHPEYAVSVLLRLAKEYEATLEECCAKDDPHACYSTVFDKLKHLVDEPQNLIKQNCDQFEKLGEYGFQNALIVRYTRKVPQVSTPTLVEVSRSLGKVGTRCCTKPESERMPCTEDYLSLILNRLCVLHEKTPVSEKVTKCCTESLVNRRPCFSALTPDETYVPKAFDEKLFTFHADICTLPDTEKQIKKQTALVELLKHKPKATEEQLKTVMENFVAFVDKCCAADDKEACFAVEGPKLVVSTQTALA

Row | Structure (SMILES) | ε, extinction coefficient [1] | λA, absorption maximum in the Q-band [1] [nm] | λF, fluorescence emission maximum [1] [nm] | Log P [2] | EC50 [4] [nM] | Interaction with BSA: disaggregation/monomerization and changes in absorption and fluorescence emission spectra [5] | ΦF, fluorescence quantum yield [7] | ΦΔ, quantum yield of singlet oxygen production [8] | EC50 [9, 15] [nM] | aggregation / monomeric state [11] | ΦF, fluorescence quantum yield of nonionized analogue [12] | ΦΔ, quantum yield of singlet oxygen production of nonionized analogue [13] | also measured
1 | O=C([O-])c1cc(C(=O)[O-])cc(-c2cc3c(cc2-c2cc(C(=O)[O-])cc(C(=O)[O-])c2)C2=Nc4c5ccccc5c5[n]4[Zn][n]4c(c6ccccc6c4=NC3=N2)=NC2=NC(=N5)c3ccccc32)c1.[Na+].[Na+].[Na+].[Na+] [A2Zn] | 152 090 M^–1cm^–1 | 677 | 688 | –2.42 | 584 ± 88 | partial | 0.02 | 0.22 | 410 ± 156 | aggregated in water | – | – | fold higher photodynamic activity vs symmetrical hydrophilic counterparts [3]: 25 and ~21; τF1, fluorescence lifetime (relative amplitude in brackets) [6]: 0.23 (16%) ns; τF2, fluorescence lifetime (relative amplitude in brackets) [6]: 2.66 (84%) ns; EC50 [10]: 700 ± 50 nM
2 | O=C(O)c1cc(Oc2cc3c(cc2Oc2cc(C(=O)O)cc(C(=O)O)c2)C2=Nc4c5cc(Oc6cc(C(=O)O)cc(C(=O)O)c6)c(Oc6cc(C(=O)O)cc(C(=O)O)c6)cc5c5[n]4[Zn][n]4c(c6cc(Oc7cc(C(=O)O)cc(C(=O)O)c7)c(Oc7cc(C(=O)O)cc(C(=O)O)c7)cc6c4=NC4=NC(=N5)c5cc(Oc6cc(C(=O)O)cc(C(=O)O)c6)c(Oc6cc(C(=O)O)cc(C(=O)O)c6)cc54)=NC3=N2)cc(C(=O)O)c1 [A3Zn(COOH)] | – | – | – | – | – | – | – | – | – | – | 0.19 | 0.42 | –
3 | O=C([O-])c1cc(Oc2cc3c(cc2Oc2cc(C(=O)[O-])cc(C(=O)[O-])c2)C2=Nc4c5cc(Oc6cc(C(=O)[O-])cc(C(=O)[O-])c6)c(Oc6cc(C(=O)[O-])cc(C(=O)[O-])c6)cc5c5[n]4[Zn][n]4c(c6cc(Oc7cc(C(=O)[O-])cc(C(=O)[O-])c7)c(Oc7cc(C(=O)[O-])cc(C(=O)[O-])c7)cc6c4=NC4=NC(=N5)c5cc(Oc6cc(C(=O)[O-])cc(C(=O)[O-])c6)c(Oc6cc(C(=O)[O-])cc(C(=O)[O-])c6)cc54)=NC3=N2)cc(C(=O)[O-])c1.[Na+].[Na+].[Na+].[Na+].[Na+].[Na+].[Na+].[Na+].[Na+].[Na+].[Na+].[Na+].[Na+].[Na+].[Na+].[Na+] [A3Zn] | 172 640 M^–1cm^–1 | 677 | 688 | –2.88 | 3470 ± 670 | slight bathochromic shift in the Q-band accompanied by partial quenching of the excited states | 0.03 | 0.24 | 5160 ± 1030 | – | 0.19 | 0.42 | quenching of excited states upon BSA addition (decrease in Q-band maximum and fluorescence intensity) [5]: negligible
4 | O=C(O)c1cc(C(=O)O)cc(-c2cc3c(cc2-c2cc(C(=O)O)cc(C(=O)O)c2)C2=Nc4c5cc(-c6cc(C(=O)O)cc(C(=O)O)c6)c(-c6cc(C(=O)O)cc(C(=O)O)c6)cc5c5[n]4[Zn][n]4c(c6cc(-c7cc(C(=O)O)cc(C(=O)O)c7)c(-c7cc(C(=O)O)cc(C(=O)O)c7)cc6c4=NC4=NC(=N5)c5cc(-c6cc(C(=O)O)cc(C(=O)O)c6)c(-c6cc(C(=O)O)cc(C(=O)O)c6)cc54)=NC3=N2)c1 [A4Zn(COOH)] | – | – | – | – | – | – | – | – | – | – | 0.12 | 0.45 | –
5 | O=C([O-])c1cc(C(=O)[O-])cc(-c2cc3c(cc2-c2cc(C(=O)[O-])cc(C(=O)[O-])c2)C2=Nc4c5cc(-c6cc(C(=O)[O-])cc(C(=O)[O-])c6)c(-c6cc(C(=O)[O-])cc(C(=O)[O-])c6)cc5c5[n]4[Zn][n]4c(c6cc(-c7cc(C(=O)[O-])cc(C(=O)[O-])c7)c(-c7cc(C(=O)[O-])cc(C(=O)[O-])c7)cc6c4=NC4=NC(=N5)c5cc(-c6cc(C(=O)[O-])cc(C(=O)[O-])c6)c(-c6cc(C(=O)[O-])cc(C(=O)[O-])c6)cc54)=NC3=N2)c1.[Na+].[Na+].[Na+].[Na+].[Na+].[Na+].[Na+].[Na+].[Na+].[Na+].[Na+].[Na+].[Na+].[Na+].[Na+].[Na+] [A4Zn] | 168 630 M^–1cm^–1 | 694 | 708 | –3.32 | 5090 ± 1240 | slight bathochromic shift in the Q-band accompanied by partial quenching of the excited states | 0.01 | – | – | monomeric in water | 0.12 | 0.45 (0.45) ^b | quenching of excited states upon BSA addition (decrease in Q-band maximum and fluorescence intensity) [5]: negligible; EC50 ([9]; same irradiation conditions, previously published per Table 2, read-out: EC50 (HeLa)): 10300 nM
6 | Cc1cc(Cn2cc[n+](C)c2)c(Oc2cc3c(cc2Oc2c(Cn4cc[n+](C)c4)cc(C)cc2Cn2cc[n+](C)c2)C2=Nc4c5ccccc5c5[n]4[Zn][n]4c(c6ccccc6c4=NC3=N2)=NC2=NC(=N5)c3ccccc32)c(Cn2cc[n+](C)c2)c1.[I-].[I-].[I-].[I-] [C3Zn] | 177 190 M^–1cm^–1 | 673 | 682 | –0.84 | 21 ± 8 | – | 0.19 | 0.53 | 48 ± 19 | monomeric in DMF but are aggregated in PBS | – | – | EC50 [10]: 40 ± 4 nM
7 | Cc1cc(OCc2cn(CCOCCOCCO)nn2)c(Oc2cc3c(cc2Oc2c(OCc4cn(CCOCCOCCO)nn4)cc(C)cc2OCc2cn(CCOCCOCCO)nn2)C2=Nc4c5ccccc5c5[n]4[Zn][n]4c(c6ccccc6c4=NC3=N2)=NC2=NC(=N5)c3ccccc32)c(OCc2cn(CCOCCOCCO)nn2)c1 [N3Zn] | 280 340 M^–1cm^–1 | 672 | 681 | 1.90 | 1500 ± 300 | – | 0.28 | 0.48 | 2200 ± 160 | – | – | – | EC50 [14]: 900 ± 200 nM
8 | [Zn+2].c1ccc2c(c1)-c1nc-2nc2[n-]c(nc3nc([n-]c4nc(n1)-c1ccccc1-4)-c1ccccc1-3)c1ccccc21 [ZnPc, unsubstituted zinc(II) phthalocyanine, reference compound] | – | – | – | – | – | – | – | – | – | – | – | – | ΦF of the reference standard ([12]; in THF, ref number not given): 0.32; ΦΔ of the reference standard ([13]; in DMF, ref number not given): 0.56

From PMC12951568, “Identifying Structural Factors Governing the Photodynamic Activity of Phthalocyanines” (Journal of Medicinal Chemistry, 2026)
